Assay results published in PMC4992410 (ACS chemical biology, 2016).

Tested on: full-length IRE1α in INS-1 rat insulinoma cells
Experiment: XBP1 mRNA splicing in INS-1 cells
Type: cell-based
Details: absence of ER stress; for spliced cellular XBP1 mRNA levels: 3 and 10 μM, 2 hours

Row | Compound | spliced cellular XBP1 mRNA levels | spliced XBP1 mRNA level compared with 0.5 μg/mL tunicamycin
1 | COc1cc(N2CCC(N3CCN(C)CC3)CC2)ccc1Nc1ncc(Cl)c(Nc2ccccc2P(C)(C)=O)n1 [AP26113] | increase in spliced cellular XBP1 mRNA levels | equal or greater level
2 | O=C(Nc1c[nH]nc1-c1nc2ccc(CN3CCOCC3)cc2[nH]1)NC1CC1 [AT9283] | increase in spliced cellular XBP1 mRNA levels | equal or greater level
3 | NC(=O)Nc1cc(-c2cccc(F)c2)sc1C(=O)N[C@H]1CCCNC1 [AZD7762] | increase in spliced cellular XBP1 mRNA levels | –
4 | COc1cc(N2CCC(N3CCN(C)CC3)CC2)ccc1Nc1ncc(Cl)c(Nc2ccccc2S(=O)(=O)C(C)C)n1 [TAE684] | increase in spliced cellular XBP1 mRNA levels | –
